The source of these data is ChEMBL document CHEMBL1201862, “PubChem BioAssay data set” (2004).

Calls of active or inactive are those of the source. Some results are limits rather than exact numbers.

Test [1] is described as follows: potency of ADAM10 substrate cleavage blockers – biochemical, QFRET, dose response (AID 743254).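 Further: ADAM10 enzyme with the DM2 quenched FRET peptide as substrate; EDANS fluorescence gain as the protease cuts the substrate; inhibitor potency against ADAM10 proteolytic activity.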
The target in test [2] is Disintegrin and metalloproteinase domain-containing protein 17 (Homo sapiens, UniProt P78536). Nature of the test: inhibition of ADAM17 substrate cleavage – biochemical, quenched FRET substrate, counter-screen for ADAM10 exosite inhibitor project, dose response (AID 743253). (In general: The purpose of a counterscreen is to sort out artefacts and off-target activity.)
Chain of Disintegrin and metalloproteinase domain-containing protein 17 (P78536 whole entry, the tested form may be a part): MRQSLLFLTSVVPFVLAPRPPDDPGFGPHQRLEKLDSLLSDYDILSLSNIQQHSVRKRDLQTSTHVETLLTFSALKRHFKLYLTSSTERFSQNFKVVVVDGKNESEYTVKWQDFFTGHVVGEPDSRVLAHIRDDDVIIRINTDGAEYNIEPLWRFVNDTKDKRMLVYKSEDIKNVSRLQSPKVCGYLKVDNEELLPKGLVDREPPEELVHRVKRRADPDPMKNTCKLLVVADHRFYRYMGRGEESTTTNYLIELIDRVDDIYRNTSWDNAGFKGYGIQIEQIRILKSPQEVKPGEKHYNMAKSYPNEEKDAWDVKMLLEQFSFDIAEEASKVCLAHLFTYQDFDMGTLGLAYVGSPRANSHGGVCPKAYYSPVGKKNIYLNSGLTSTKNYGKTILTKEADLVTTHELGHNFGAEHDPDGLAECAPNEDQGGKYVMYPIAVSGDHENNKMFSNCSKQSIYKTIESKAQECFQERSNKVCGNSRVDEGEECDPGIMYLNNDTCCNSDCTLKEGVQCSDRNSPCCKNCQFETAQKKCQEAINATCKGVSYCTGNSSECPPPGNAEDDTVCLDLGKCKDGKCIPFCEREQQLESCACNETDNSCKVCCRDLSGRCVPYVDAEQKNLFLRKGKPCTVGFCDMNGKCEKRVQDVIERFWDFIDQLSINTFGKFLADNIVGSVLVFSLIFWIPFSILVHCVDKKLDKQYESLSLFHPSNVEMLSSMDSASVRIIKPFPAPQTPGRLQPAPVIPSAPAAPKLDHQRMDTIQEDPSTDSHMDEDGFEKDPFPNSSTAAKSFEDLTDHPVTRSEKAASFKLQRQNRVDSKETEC
Test [3] is described as follows: cells. Format: functional, cell-based.
Test [4] is described as follows: cells. Format: functional, cell-based. The source holds these as a separate data set.
The target of test [5] is T1, Trace amine-associated receptor 1 (Homo sapiens, UniProt Q96RJ0). Nature of the test: Counterscreen for agonists of the human trace amine associated receptor 1 (hTAAR1): Fluorescence-based cell-based high throughput dose response assay to identify hTAAR1 agonist that also desensitize TAAR1 receptor response. It counts as functional.
T1 sequence (Q96RJ0 whole entry): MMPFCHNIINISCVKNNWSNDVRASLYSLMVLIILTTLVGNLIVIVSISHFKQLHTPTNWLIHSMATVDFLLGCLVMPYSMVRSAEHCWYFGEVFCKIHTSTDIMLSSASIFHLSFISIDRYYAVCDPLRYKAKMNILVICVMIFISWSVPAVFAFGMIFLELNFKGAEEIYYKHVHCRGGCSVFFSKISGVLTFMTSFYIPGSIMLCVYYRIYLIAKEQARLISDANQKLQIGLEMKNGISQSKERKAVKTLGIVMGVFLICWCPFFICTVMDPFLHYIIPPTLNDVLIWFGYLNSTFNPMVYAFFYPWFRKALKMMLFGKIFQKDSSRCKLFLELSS
Test [6] has as its target T1, Trace amine-associated receptor 1. Nature of the test: Fluorescence-based cell-based high throughput dose response assay to identify agonists of the human trace amine associated receptor 1 (TAAR1). Format: functional.
Test [7] has as its target Hepatocyte nuclear factor 4-alpha (Homo sapiens, UniProt P41235). Format: functional, cell-based.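 Further: biochemical luminescence-based dose-response counterscreen measuring inhibition of HNF4 dimerization, run alongside a screen for blockers of ABHD5–perilipin-5 interaction; split luciferase complementation of HNF4 fusion proteins in cell lysate measuring dimerization.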
Test [8] deals with T2, Sentrin-specific protease 1 (Homo sapiens, UniProt Q9P0U3). Nature of the test: SENP1 catalytic domain blockers, concentration series – biochemical, kinetic FRET, dose response (AID 651697). It counts as functional. The settings on record: read-out: IC50_Mean.
T2 sequence (Q9P0U3 whole entry, the tested form may be a part): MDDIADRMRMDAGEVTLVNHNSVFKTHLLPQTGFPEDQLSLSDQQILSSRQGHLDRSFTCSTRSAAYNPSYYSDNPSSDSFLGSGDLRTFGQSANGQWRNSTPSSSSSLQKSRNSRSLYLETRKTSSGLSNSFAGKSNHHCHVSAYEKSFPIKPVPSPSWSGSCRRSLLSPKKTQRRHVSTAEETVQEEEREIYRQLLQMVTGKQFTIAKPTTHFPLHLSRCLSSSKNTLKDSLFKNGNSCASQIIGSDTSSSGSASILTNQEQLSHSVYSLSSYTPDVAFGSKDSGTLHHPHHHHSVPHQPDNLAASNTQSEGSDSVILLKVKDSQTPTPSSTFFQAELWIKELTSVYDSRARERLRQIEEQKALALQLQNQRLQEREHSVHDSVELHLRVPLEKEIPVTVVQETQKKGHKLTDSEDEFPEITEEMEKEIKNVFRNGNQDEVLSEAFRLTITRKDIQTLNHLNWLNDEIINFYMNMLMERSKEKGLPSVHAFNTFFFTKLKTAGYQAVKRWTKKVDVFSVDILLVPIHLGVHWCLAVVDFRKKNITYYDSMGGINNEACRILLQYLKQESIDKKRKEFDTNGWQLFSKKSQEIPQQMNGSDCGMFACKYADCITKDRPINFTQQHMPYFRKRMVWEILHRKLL
Test [9] concerns the target T2, Sentrin-specific protease 1. Nature of the test: Dose response confirmation of small molecule inhibitors of the catalytic domain of the SUMO protease, SENP1 in a FRET assay. Format: functional. The settings on record: read-out: IC50_Mean.
The subject of a further test is Vero. Nature of the test: viability loss in Vero cells – cell-based, plate reader, cherry-pick samples, cytotoxicity control, dose response (AID 687020). It counts as functional. The settings on record: Chlorocebus sabaeus.
Test [10] is described as follows: viability loss in HeLa cells – cytotoxicity control for MgcRacGAP inhibitor project, dose response (AID 624300). Format: functional.
Test [11] addresses T3, Rac GTPase-activating protein 1 (Homo sapiens, UniProt Q9H0H5).
T3 sequence (Q9H0H5 whole entry): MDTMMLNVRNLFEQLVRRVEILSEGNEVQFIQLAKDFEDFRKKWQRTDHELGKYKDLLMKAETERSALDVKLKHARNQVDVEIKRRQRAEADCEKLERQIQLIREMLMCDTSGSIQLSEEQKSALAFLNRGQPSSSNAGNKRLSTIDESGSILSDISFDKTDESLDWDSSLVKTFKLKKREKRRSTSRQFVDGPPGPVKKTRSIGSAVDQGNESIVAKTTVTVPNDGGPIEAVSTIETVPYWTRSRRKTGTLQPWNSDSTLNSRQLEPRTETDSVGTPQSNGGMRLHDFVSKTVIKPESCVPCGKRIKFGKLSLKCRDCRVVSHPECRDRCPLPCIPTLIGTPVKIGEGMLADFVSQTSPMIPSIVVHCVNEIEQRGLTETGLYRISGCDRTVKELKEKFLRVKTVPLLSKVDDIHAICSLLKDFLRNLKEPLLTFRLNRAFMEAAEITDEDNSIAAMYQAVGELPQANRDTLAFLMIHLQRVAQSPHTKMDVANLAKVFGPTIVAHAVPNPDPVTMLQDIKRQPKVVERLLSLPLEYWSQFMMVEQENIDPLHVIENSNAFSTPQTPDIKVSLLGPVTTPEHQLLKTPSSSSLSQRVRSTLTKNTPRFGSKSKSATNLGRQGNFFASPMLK
Nature of the test: blockers of MgcRacGAP-driven Rac1 GTP hydrolysis – biochemical, ADP Hunter fluorescence, primary and confirmatory, confirmation (AID 624330). It counts as functional.

Test [12] deals with Beta-lactamase (Pseudomonas aeruginosa, UniProt Q79MP6).
Chain of Beta-lactamase (Pseudomonas aeruginosa, UniProt Q79MP6) (Q79MP6 whole entry): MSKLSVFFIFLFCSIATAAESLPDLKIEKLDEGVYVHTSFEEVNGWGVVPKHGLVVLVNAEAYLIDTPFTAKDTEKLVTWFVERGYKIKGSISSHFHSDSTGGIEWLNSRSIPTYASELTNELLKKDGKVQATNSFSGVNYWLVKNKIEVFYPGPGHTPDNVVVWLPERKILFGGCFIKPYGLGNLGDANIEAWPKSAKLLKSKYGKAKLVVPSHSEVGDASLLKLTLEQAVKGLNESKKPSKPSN
For test [13], the target named is Beta-lactamase (Salmonella choleraesuis (strain SC-B67), UniProt Q5J463).
Chain of Beta-lactamase (Salmonella choleraesuis (strain SC-B67), UniProt Q5J463) (Q5J463 whole entry): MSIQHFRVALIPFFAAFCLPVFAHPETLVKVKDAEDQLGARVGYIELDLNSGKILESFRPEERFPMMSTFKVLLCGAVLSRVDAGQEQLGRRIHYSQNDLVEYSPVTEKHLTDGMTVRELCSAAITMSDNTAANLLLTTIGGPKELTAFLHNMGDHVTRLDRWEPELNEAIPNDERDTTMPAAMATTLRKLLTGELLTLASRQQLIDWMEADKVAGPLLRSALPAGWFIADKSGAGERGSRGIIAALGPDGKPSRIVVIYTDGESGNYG
A short description of test [14]: HeLa cell viability loss – 24 h, dry powder, set 2, cytotoxicity control, dose response (AID 651774). It counts as functional, cell-based.

Chain of Hepatocyte nuclear factor 4-alpha (P41235 whole entry, the tested form may be a part): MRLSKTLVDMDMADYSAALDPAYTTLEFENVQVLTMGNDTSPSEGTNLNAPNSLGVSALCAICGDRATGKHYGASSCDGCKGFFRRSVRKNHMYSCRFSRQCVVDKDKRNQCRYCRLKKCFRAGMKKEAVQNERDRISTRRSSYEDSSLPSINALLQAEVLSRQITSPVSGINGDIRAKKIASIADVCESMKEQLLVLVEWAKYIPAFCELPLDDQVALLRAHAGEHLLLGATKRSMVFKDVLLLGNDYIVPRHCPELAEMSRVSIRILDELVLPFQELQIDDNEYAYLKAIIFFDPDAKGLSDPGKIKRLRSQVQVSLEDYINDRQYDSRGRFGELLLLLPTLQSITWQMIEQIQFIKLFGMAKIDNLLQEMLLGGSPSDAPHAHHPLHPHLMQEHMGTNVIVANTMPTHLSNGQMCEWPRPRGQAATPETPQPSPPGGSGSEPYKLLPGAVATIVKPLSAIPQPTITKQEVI

In the case of `COc1ccc(C(=O)N/N=C/c2ccc(OC)c(COc3ccccc3)c2)cc1`, the IC50 in test [1] and in [2] was > 69.5 µM (inactive) in each case.

Consider `O=C(O)C1CCCCC1C(=O)NCCc1cccc(Cl)c1` (stereo not given), for which the EC50 (as a rule, the midpoint of the concentration-response curve) was > 29.9 µM (inactive) in “cells [3]” and 2.5 µM (active) in test [6]. Moreover, the IC50 (in the test “cells [4]”; in [5]) was > 29.9 µM (inactive) in each case.

As to `O=C(Nc1ccc2c(c1)OCCO2)C(c1ccccc1F)n1c(=O)c(-c2ccco2)nc2ccccc21` (stereo not given), the IC50 in test [7] was 16.2 µM (inactive).

On to `O=C1C=C(Nc2ccc(Cl)cc2)C(=O)N1c1ccc(Cl)cc1`, for which the IC50 in test [8] is 21 µM (inactive); in test [9], 12.5 µM (active).

With `COC(=O)N1CCCCC1c1cc(C(=O)Nc2ccc(OC)cc2C)no1` (stereo not given), the concentration at half-maximal activity (AC50) (as a rule, the concentration giving half of the maximal activity seen) in the test on Vero is 34.5 µM (active).

Consider `Cn1c(-c2ccc3c(c2)OCO3)cnc1NCc1ccccc1Cl`, for which, in test [10], the CC50 – broadly, the concentration that lowers cell viability or growth by half – was 100 µM (active). The IC50 in test [11] is 72 µM (active).

With `CC(C)C(CCN1C(=O)c2ccccc2C1=O)c1ccco1` (stereo not given), the IC50 on Beta-lactamase [12] is 36.8 µM (inactive); on Beta-lactamase [13], > 59.6 µM (inactive).

With `Cn1nnnc1NCc1ccc(C(F)(F)F)cc1`, in [14], the AC50 was > 70 µM (inactive).
